According to patent publication US12527797B2, “Isochromene derivatives as phosphoinositide 3-kinases inhibitors” (CHIESI FARMACEUTICI S.P.A., priority 2019, dated 2026):
Like-named read-outs stand apart in the source and are kept apart here.

Assays:
PI3Kα = target: T1, PI3Kα (Homo sapiens, UniProt P42336); details: cell free assay; reproduced from WO2015091685; read-out: PI3K alpha inhibition; cited from earlier work
T1 construct: purchased Millipore Ltd (Billerica, MA)

PI3Kβ = target: T2, PI3Kβ (Homo sapiens, UniProt P42338); details: cell free assay; reproduced from WO2015091685; read-out: PI3K beta inhibition; cited from earlier work
T2 construct: purchased Millipore Ltd (Billerica, MA)
T2 sequence (P42338 whole entry): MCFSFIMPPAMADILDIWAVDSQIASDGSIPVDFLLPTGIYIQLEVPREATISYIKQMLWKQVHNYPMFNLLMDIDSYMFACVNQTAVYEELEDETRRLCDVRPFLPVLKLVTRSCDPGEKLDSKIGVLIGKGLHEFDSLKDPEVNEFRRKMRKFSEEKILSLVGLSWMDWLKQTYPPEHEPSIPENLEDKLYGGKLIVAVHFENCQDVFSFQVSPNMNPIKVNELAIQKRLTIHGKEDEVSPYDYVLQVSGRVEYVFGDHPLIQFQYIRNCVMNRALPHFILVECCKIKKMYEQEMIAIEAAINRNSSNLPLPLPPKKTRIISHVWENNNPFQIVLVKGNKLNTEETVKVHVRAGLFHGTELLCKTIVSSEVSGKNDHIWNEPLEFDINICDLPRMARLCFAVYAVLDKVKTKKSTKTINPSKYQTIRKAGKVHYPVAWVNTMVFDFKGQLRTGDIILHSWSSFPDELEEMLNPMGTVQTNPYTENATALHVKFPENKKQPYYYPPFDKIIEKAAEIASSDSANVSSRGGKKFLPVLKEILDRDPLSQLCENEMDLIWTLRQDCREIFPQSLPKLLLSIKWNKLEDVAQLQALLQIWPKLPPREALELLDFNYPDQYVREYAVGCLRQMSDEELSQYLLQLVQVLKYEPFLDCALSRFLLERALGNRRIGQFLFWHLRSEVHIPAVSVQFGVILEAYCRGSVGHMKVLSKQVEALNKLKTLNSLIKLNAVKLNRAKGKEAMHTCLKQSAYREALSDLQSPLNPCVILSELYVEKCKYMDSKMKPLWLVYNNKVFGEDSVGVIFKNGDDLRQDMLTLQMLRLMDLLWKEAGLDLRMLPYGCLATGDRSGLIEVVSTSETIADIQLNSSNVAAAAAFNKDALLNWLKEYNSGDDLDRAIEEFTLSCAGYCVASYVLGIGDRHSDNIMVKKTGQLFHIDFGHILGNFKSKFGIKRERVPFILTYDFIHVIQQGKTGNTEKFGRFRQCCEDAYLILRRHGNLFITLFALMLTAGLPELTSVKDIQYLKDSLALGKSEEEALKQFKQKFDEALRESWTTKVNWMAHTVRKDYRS

PI3Kδ [1] = target: T3, PI3Kδ (Homo sapiens, UniProt O00329); details: cell free assay; reproduced from WO2015091685; read-out: PI3K delta inhibition; cited from earlier work
T3 construct: purchased Millipore Ltd (Billerica, MA)
T3 sequence (O00329 whole entry): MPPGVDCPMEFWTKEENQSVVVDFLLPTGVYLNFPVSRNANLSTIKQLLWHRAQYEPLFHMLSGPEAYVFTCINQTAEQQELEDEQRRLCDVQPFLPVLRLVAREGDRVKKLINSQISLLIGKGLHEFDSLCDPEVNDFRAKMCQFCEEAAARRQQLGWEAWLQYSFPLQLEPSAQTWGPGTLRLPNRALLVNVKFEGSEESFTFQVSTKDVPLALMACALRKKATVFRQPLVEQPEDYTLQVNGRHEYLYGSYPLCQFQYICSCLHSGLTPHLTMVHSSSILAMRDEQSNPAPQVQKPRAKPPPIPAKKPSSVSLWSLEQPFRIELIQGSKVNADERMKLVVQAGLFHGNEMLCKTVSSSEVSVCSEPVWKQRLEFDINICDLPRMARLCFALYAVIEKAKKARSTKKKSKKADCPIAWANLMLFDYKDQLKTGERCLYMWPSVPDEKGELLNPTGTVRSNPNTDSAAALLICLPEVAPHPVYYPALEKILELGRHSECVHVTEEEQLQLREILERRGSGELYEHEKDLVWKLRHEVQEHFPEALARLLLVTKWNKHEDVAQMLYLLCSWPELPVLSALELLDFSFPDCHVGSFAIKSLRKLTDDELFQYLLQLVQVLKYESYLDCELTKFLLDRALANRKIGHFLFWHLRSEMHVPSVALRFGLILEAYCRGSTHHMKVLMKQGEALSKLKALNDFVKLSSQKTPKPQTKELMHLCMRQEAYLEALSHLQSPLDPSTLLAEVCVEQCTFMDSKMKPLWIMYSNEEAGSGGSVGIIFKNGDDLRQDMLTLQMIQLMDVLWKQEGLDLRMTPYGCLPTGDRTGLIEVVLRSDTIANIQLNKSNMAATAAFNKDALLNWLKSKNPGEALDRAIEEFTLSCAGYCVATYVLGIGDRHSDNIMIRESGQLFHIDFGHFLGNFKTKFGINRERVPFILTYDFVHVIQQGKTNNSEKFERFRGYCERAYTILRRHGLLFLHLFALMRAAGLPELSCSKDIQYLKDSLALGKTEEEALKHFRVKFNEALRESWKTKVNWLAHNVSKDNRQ
T3 sequence (P27986 whole entry partner): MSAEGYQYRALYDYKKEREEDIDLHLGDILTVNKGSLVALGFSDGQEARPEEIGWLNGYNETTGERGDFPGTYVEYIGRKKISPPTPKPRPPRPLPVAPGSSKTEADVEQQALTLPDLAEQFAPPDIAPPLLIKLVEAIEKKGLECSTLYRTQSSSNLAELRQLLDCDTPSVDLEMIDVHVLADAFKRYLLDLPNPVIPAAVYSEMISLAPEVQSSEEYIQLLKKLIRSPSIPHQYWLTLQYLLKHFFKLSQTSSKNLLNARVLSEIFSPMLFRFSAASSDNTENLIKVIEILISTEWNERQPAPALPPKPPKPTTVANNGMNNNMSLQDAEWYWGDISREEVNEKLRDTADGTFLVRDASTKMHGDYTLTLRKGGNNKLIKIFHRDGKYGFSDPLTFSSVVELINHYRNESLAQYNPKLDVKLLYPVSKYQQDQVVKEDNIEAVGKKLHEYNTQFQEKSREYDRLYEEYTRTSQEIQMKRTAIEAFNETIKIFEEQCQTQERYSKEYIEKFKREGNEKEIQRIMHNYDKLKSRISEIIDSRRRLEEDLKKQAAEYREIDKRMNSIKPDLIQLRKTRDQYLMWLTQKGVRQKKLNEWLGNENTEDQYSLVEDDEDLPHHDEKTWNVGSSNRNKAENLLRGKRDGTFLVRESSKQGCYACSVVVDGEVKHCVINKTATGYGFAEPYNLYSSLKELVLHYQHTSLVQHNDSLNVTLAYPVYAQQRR

PI3Kγ = target: T4, PI3Kγ (Homo sapiens, UniProt P48736); details: cell free assay; reproduced from WO2015091685; read-out: PI3K gamma inhibition; cited from earlier work
T4 construct: purchased Millipore Ltd (Billerica, MA)
T4 sequence (P48736 whole entry): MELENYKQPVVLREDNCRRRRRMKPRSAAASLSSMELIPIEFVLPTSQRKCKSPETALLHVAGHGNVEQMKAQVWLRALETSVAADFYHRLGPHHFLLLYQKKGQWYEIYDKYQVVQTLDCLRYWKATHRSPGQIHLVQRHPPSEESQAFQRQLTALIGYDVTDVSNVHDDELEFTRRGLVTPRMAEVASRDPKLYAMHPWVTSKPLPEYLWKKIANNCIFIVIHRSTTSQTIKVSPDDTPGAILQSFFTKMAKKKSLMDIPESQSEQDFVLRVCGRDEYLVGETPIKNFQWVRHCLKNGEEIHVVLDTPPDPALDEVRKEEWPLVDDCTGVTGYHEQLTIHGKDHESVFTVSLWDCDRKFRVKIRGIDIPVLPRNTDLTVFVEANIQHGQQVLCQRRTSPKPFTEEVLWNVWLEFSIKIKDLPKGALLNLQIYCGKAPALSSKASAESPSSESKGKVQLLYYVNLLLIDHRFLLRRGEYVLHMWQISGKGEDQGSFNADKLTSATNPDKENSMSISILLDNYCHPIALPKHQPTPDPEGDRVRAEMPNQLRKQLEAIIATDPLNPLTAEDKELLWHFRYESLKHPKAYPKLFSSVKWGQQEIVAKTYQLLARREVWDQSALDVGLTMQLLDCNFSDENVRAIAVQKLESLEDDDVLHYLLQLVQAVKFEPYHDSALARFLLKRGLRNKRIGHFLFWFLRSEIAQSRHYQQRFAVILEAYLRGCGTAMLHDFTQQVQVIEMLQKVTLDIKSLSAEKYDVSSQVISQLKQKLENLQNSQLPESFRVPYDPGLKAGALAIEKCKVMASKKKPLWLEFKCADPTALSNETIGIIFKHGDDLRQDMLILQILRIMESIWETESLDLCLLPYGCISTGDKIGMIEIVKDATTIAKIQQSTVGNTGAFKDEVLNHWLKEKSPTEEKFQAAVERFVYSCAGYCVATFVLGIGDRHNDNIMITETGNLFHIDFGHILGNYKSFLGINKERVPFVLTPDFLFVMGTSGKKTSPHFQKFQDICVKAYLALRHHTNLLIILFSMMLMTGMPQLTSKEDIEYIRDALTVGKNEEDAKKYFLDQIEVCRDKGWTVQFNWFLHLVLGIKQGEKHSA

PI3Kδ [2] = target: T3, PI3Kδ; experiment: PI3K enzyme inhibitory activity in the cell free assay (ADP-Glo Kinase Assay); assay type: biochemical; details: cell free enzymatic assay; for IC50: ATP 80 μM, read-out: Enzymatic Delta IC50; for Ki: read-out: Enzymatic Delta Ki
[3] = tested on: PI3Kδ-AKT pathway endogenously expressed on THP-1 cells; experiment: PI3Kδ enzyme inhibitory activity in the THP-1 assay (M-CSF stimulated pAKT, HTRF); assay type: cell-based; details: for IC50: Homo sapiens, THP-1 cells, M-CSF 2.5 ng/mL, pAKT Ser473, read-out: THP-1 IC50 nM Cellular; for Delta cell drop-off (Cellular/enzymatic activity = THP-1 IC50 nM/Delta Ki nM): ratio THP-1 IC50 / Delta Ki
[4] = tested on: Ovalbumin (OVA) induced lung eosinophilia; experiment: Rat model of ovalbumin (OVA) induced lung eosinophilia (WET administration, saline suspension i.t.); assay type: in vivo, Brown Norway rats
Lung retention = details: reason why not tested in OVA model
[5] = administered 12 h before OVA challenge, 0.1 μmol/kg (ED80) for compounds of the invention

T1 sequence (P42336 whole entry): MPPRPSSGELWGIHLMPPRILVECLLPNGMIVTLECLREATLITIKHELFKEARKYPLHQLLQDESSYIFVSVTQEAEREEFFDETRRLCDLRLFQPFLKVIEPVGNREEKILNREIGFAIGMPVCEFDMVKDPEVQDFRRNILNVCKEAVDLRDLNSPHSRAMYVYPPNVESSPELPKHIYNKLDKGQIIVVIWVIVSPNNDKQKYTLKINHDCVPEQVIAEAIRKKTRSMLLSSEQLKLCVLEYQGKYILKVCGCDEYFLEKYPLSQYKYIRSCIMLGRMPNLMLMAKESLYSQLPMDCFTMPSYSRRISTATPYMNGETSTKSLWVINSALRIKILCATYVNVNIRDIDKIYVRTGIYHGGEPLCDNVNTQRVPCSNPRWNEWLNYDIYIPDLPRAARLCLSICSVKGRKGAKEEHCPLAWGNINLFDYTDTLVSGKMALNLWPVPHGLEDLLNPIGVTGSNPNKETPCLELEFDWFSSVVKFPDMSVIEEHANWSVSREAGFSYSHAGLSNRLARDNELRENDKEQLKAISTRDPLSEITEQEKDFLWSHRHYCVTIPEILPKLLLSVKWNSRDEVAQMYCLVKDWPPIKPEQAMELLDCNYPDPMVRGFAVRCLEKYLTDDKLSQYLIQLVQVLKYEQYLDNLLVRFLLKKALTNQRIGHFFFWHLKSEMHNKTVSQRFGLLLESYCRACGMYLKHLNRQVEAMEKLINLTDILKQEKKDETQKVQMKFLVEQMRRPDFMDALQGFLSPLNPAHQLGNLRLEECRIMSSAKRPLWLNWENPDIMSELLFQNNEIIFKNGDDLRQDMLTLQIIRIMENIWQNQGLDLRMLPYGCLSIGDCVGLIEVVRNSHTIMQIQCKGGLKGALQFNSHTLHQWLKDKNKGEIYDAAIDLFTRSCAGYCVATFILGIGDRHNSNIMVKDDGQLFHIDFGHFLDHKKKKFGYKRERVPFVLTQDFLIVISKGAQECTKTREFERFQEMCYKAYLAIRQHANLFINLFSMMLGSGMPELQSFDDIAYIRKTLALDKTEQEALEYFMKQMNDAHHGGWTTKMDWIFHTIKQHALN

| Structure (SMILES) | IC50 (PI3Kδ [2]) [nM] | Ki (PI3Kδ [2]) [nM] | IC50 [3] [nM] | Delta cell drop-off (Cellular/enzymatic activity = THP-1 IC50 nM/Delta Ki nM) [3] | other results |
| --- | --- | --- | --- | --- | --- |
| CC(c1oc(=O)c2ccccc2c1-c1cccc(CN2CCN(C)CC2)c1)n1nc(-c2cc(O)cc(F)c2)c2c(N)ncnc21 (racemic) [Example 142, 3-(1-(4-amino-3-(3-fluoro-5-hydroxyphenyl)-1H-pyrazolo[3,4-d]pyrimidin-1-yl)ethyl)-4-(3-((4-methylpiperazin-1-yl)methyl)phenyl)-1H-isochromen-1-one] | – | – | – | – | IC50 (PI3Kα): > 1000 nM; IC50 (PI3Kβ): > 1000 nM; IC50 (PI3Kδ [1]): < 10 nM; IC50 (PI3Kγ): > 1000 nM |
| CC(c1oc(=O)c2ccccc2c1-c1cccc(CN2CCN(C)CC2)c1)n1nc(-c2cc(O)cc(F)c2)c2c(N)ncnc21 (single isomer, unassigned) [Comparative example 1, 3-(1-(4-amino-3-(3-fluoro-5-hydroxyphenyl)-1H-pyrazolo[3,4-d]pyrimidin-1-yl)ethyl)-4-(3-((4-methylpiperazin-1-yl)methyl)phenyl)-1H-isochromen-1-one, reference compound] | 2.2 | 1.1 | 1.8 | 1.6 | % of inhibition (eosinophil recruitment in BALF) [4, 5]: 0% (Not durable) |
| CC(c1oc(=O)c2ccccc2c1-c1ccccc1)n1nc(-c2cncc(O)c2)c2c(N)ncnc21 (single isomer, unassigned) [Comparative example 2, reference compound] | – | – | 1.6 | – | lung retention (Lung retention): Compound not even tested in OVA model for Insufficient lung retention**** |
| CC(c1oc(=O)c2ccccc2c1-c1cccc(CN(C)C)c1)n1nc(-c2cc(O)cc(F)c2)c2c(N)ncnc21 (single isomer, unassigned) [Comparative example 3, reference compound] | – | – | 1.5 | – | % of inhibition (eosinophil recruitment in BALF) ([4]; administered 2 h before OVA challenge, ns = non-significant): 34% ns*** |
| CC(c1oc(=O)c2ccccc2c1-c1cccc(CN2CCN(C)CC2)c1)n1nc(-c2cncc(O)c2)c2c(N)ncnc21 (single isomer, unassigned) [Example 1a, 3-{1-[4-Amino-3-(5-hydroxypyridin-3-yl)-1H-pyrazolo[3,4-d]pyrimidin-1-yl]ethyl}-4-{3-[(4-methylpiperazin-1-yl)methyl]phenyl}-1H-isochromen-1-one] | – | – | 2.8 | 3.1 | % of inhibition (eosinophil recruitment in BALF) [4, 5]: 55% |
| CC(c1oc(=O)c2ccccc2c1-c1cccc(CN(C)C)c1)n1nc(-c2cncc(O)c2)c2c(N)ncnc21 (single isomer, unassigned) [Example 2a, 3-(1-(4-amino-3-(5-hydroxypyridin-3-yl)-1H-pyrazolo[3,4-d]pyrimidin-1-yl)ethyl)-4-(3-((dimethylamino)methyl)phenyl)-1H-isochromen-1-one] | – | – | 0.6 | 1.2 | % of inhibition (eosinophil recruitment in BALF) [4, 5]: 57% |
| CC(c1oc(=O)c2ccccc2c1-c1cccc([C@H]2CCCN2C)c1)n1nc(-c2cncc(O)c2)c2c(N)ncnc21 (single isomer, unassigned) [Example 4a] | 0.3 | 0.1 | 1 | 10 | – |
| CC(c1oc(=O)c2ccccc2c1-c1ccc(Cl)c(CN(C)C)c1)n1nc(-c2cncc(O)c2)c2c(N)ncnc21 (stereo not drawn) [Example 3, 3-{1-[4-Amino-3-(5-hydroxypyridin-3-yl)-1H-pyrazolo[3,4-d]pyrimidin-1-yl]ethyl}-4-{4-chloro-3-[(dimethylamino)methyl]phenyl}-1H-isochromen-1-one] | 0.7 | 0.4 | 3.9 | 9.7 | – |
| CC(c1oc(=O)c2ccccc2c1-c1ccc(F)c(CN2CCN(C)CC2)c1)n1nc(-c2cncc(O)c2)c2c(N)ncnc21 (stereo not drawn) [Example 5, 3-{1-[4-Amino-3-(5-hydroxypyridin-3-yl)-1H-pyrazolo[3,4-d]pyrimidin-1-yl]ethyl}-4-{4-fluoro-3-[(4-methylpiperazin-1-yl)methyl]phenyl}-1H-isochromen-1-one] | 1 | 0.5 | 1.8 | 3.6 | – |
| CC(c1oc(=O)c2ccccc2c1-c1cc(F)cc(CN2CCN(C)CC2)c1)n1nc(-c2cncc(O)c2)c2c(N)ncnc21 (stereo not drawn) [Example 6, 3-(1-(4-Amino-3-(5-hydroxypyridin-3-yl)-1H-pyrazolo[3,4-d]pyrimidin-1-yl)ethyl)-4-(3-fluoro-5-((4-methylpiperazin-1-yl)methyl)phenyl)-1H-isochromen-1-one] | 0.8 | 0.4 | 3 | 7.5 | – |
| CC(c1cccc(-c2c(C(C)n3nc(-c4cncc(O)c4)c4c(N)ncnc43)oc(=O)c3ccccc23)c1)N(C)C (stereo not drawn) [Example 7, 3-(1-(4-Amino-3-(5-hydroxypyridin-3-yl)-1H-pyrazolo[3,4-d]pyrimidin-1-yl)ethyl)-4-(3-(1-(dimethylamino)ethyl)phenyl)-1H-isochromen-1-one] | 1.6 | 0.8 | 3.9 | 4.9 | – |
